Reference: PubChem BioAssay (NCI)
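48-hour exposure; five concentrations; linearly interpolated endpoints. Abbreviation: GI50, concentration required for 50% inhibition of growth. TGI denotes the concentration required for complete inhibition of growth.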

What was measured:
Experiment in all cases: DTP human tumour cell line panel, 48 h; in the data active means GI50 below about 0.43 µM; inactive means the rest
[1] = tested on: HS 578T breast
[2] = tested on: ACHN renal
[3] = tested on: 786-0 renal
[4] = tested on: CCRF-CEM leukemia
[5] = tested on: OVCAR-4 ovarian
[6] = tested on: UACC-257 melanoma
[7] = tested on: HCC-2998 colon
[8] = tested on: UO-31 renal
[9] = tested on: SK-MEL-5 melanoma
[10] = tested on: M14 melanoma
[11] = tested on: KM12 colon
[12] = tested on: HT29 colon
[13] = tested on: SNB-75 CNS
[14] = tested on: MDA-MB-231 breast
[15] = tested on: MOLT-4 leukemia
[16] = tested on: MDA-MB-435
[17] = tested on: PC-3 prostate
[18] = tested on: HL-60(TB) leukemia
[19] = tested on: NCI-H522 lung
[20] = tested on: SR leukemia
[21] = tested on: NCI-H226 lung
[22] = tested on: HCT-116 colon
[23] = tested on: HOP-62 NSCLC
[24] = tested on: DU-145 prostate
[25] = tested on: SK-MEL-28 melanoma
[26] = tested on: T-47D breast
[27] = tested on: HOP-92 NSCLC
[28] = tested on: CAKI-1 renal
[29] = tested on: A549 NSCLC
[30] = tested on: SF-539 CNS
[31] = tested on: COLO 205 colon
[32] = tested on: K-562 leukemia
[33] = tested on: HCT-15 colon
[34] = tested on: IGROV1 ovarian
[35] = tested on: A498 renal
[36] = tested on: SF-295 CNS
[37] = tested on: SW-620 colon
[38] = tested on: NCI-H460 lung
[39] = tested on: MCF7 breast
[40] = tested on: NCI-H23 lung
[41] = tested on: OVCAR-3 ovarian
[42] = tested on: UACC-62 melanoma
[43] = tested on: NCI/ADR-RES ovarian
[44] = tested on: SNB-19 CNS
[45] = tested on: TK-10 renal
[46] = tested on: U251 CNS
[47] = tested on: SK-OV-3 ovarian
[48] = tested on: SN12C renal
[49] = tested on: SK-MEL-2 melanoma
[50] = tested on: EKVX NSCLC
[51] = tested on: LOX IMVI melanoma
[52] = tested on: OVCAR-8 ovarian
[53] = tested on: SF-268 CNS
[54] = tested on: OVCAR-5 ovarian
[55] = tested on: BT-549 breast
[56] = tested on: RPMI-8226 leukemia

CCN1C(=O)N(CC)C2SC(N/N=C/c3ccccc3F)=NC21 (stereo not given)
836 nM: TGI [35]
772 nM: TGI [30]
274 nM: TGI [16]
inactive: GI50 [2] 864 nM | GI50 [3] 657 nM | GI50 [5] > 58300 nM | GI50 [6] 2170 nM | GI50 [8] 643 nM | GI50 [9] 603 nM | GI50 [14] 635 nM | GI50 [15] 507 nM | GI50 [21] 1960 nM | GI50 [23] 474 nM | GI50 [24] 462 nM | GI50 [25] 5620 nM | GI50 [26] 557 nM | GI50 [27] 1280 nM | GI50 [29] 526 nM | GI50 [34] 599 nM | GI50 [40] 467 nM | GI50 [44] 430 nM | GI50 [47] 569 nM | GI50 [48] 567 nM | GI50 [50] 570 nM | GI50 [51] 556 nM | GI50 [53] 4170 nM | GI50 [54] 517 nM
> 73000 nM: TGI [13]
> 100000 nM: TGI [1] | TGI [2] | TGI [4] | TGI [5] | TGI [8] | TGI [12] | TGI [14] | TGI [15] | TGI [17] | TGI [20] | TGI [21] | TGI [22] | TGI [23] | TGI [24] | TGI [25] | TGI [26] | TGI [28] | TGI [29] | TGI [32] | TGI [33] | TGI [34] | TGI [36] | TGI [37] | TGI [38] | TGI [39] | TGI [40] | TGI [41] | TGI [42] | TGI [44] | TGI [45] | TGI [47] | TGI [48] | TGI [49] | TGI [50] | TGI [51] | TGI [53] | TGI [54] | TGI [56]
633 nM: TGI [18]
> 39200 nM: TGI [46]
> 64400 nM: TGI [6]
> 25800 nM: TGI [27]
> 86100 nM: TGI [3]
610 nM: TGI [10]
20700 nM: TGI [9]
1480 nM: TGI [31]
active: GI50 [1] 299 nM | GI50 [4] 364 nM | GI50 [7] 414 nM | GI50 [10] 206 nM | GI50 [11] 383 nM | GI50 [12] 323 nM | GI50 [13] 207 nM | GI50 [16] 75.1 nM | GI50 [17] 347 nM | GI50 [18] 199 nM | GI50 [19] 172 nM | GI50 [20] 165 nM | GI50 [22] 369 nM | GI50 [28] 353 nM | GI50 [30] 238 nM | GI50 [31] 298 nM | GI50 [32] 194 nM | GI50 [33] 344 nM | GI50 [35] 204 nM | GI50 [36] 293 nM | GI50 [37] 372 nM | GI50 [38] 353 nM | GI50 [39] 267 nM | GI50 [41] 330 nM | GI50 [42] 295 nM | GI50 [43] 312 nM | GI50 [46] 342 nM | GI50 [49] 326 nM | GI50 [52] 425 nM | GI50 [55] 298 nM | GI50 [56] 355 nM
> 54800 nM: TGI [11]
27000 nM: TGI [7]
1590 nM: TGI [55]
527 nM: TGI [19]
> 65900 nM: TGI [43]
